This note sets out measurements from patent publication US9592217B2, “Method for treating skin inflammatory diseases” (Olatec Therapeutics LLC, priority 2012, dated 2017).

Common to all, as to assay type: in vivo
For series [1], the system named is arachidonic acid induced ear swelling. As to the kind of experiment: Topical arachidonic acid induced ear swelling model in mice. To be noted: 30 min before and 15 min after arachidonic acid, measured at 90 minutes. Here is the method: Purified 3-methanesulfonylpropionitrile was dissolved in vehicle (ethanol/acetone 1:1) to 5% (w/v). The active compound, indomethacin (positive control in vehicle), and vehicle were topically applied to mice and evaluated for anti-inflammatory activity in the topical arachidonic acid induced ear swelling model in mice, which is a model of irritant contact dermatitis.
Male ICR mice weighing 22±2 g were used and randomly divided; each group had 10 mice. Arachidonic Acid (0.5 mg in 20 μl of acetone:ethanol/1:1) was applied topically to the anterior and posterior surfaces of the right ear of each mice. Test substance and vehicle, as listed in Table 3 were similarly applied 30 min before and 15 min after arachidonic acid application. The thickness of the right ear and the left ear was measured and the difference calculated as an indication of the inflammation in the right ear. Ear swelling was measured by a Dyer model micrometer gauge at 60 and 90 minutes after arachidonic acid application as an index of inflammation. Percent inhibition was calculated according to the formula: Ic−It/Ic×100, where Ic and It refers to increase of ear thickness (mm) in control and treated mice, respectively. ANOVA and Dunnett's test were employed to ascertain significant difference between vehicle control and treated groups. Significance is set at P<0.05 level.

Series [2] is described as follows: Systemic (plasma) exposure after oral and subcutaneous administration to rats. Here is the method: This study was done to determine the systemic (plasma) exposure of MSPN after administration by the oral and subcutaneous routes to rats.
MSPN substance was prepared in water for oral administration and in saline for subcutaneous administration. Rats weighed 282 to 295 g were used in the study. Male rats (n=2) were given a single dose at 50, 160 or 500 mg/kg by both oral and subcutaneous routes. Female rats (n=2) were dosed only at 500 mg/kg by both oral and subcutaneous routes. The blood was drawn from each rat at 0.25, 1, 2, 3, 4, 6, 12, 24, and 48 hours and measured for MSPN concentration by LC/MS/MS.

A further series relates to rats. Kind of series: Oral systemic toxicity in rats.
In the next series the test system is dogs. As to the kind of experiment: Oral systemic toxicity in dogs.
Setting [3] is: decreased body temperature, decreased respiratory rate, increased blood pressure, increased heart rate.

Like-named read-outs stand apart in the source and are kept apart here.

Turning to `COc1ccc2c(c1)c(CC(=O)O)c(C)n2C(=O)c1ccc(Cl)cc1` [Indomethacin, indomethacin, reference compound], in series [1] ((0.5% w/v), 0.1 mg/20 μL), the “% Inhibition of ear swelling” value is 53%.

`CS(=O)(=O)CCC#N` [MSPN, 3-methanesulfonylpropionitrile]: in series [1] (375 mM (5% w/v), 1 mg/20 μL), the “% Inhibition of ear swelling” value worked out at 36%. Moreover, the Cmax in series [2] (rat, plasma, 500 mg/kg, heading: average maximum plasma concentration, male rats, oral, single dose 500 mg/kg, read-out: average maximum plasma concentration (Cmax)) is 12 µg/mL; in series [2] (rat, plasma, sc, 500 mg/kg, heading: average Cmax, female rats, subcutaneous, single dose 500 mg/kg, read-out: average Cmax) it was 9.5 µg/mL; in series [2] (rat, plasma, sc, male rats, subcutaneous, single dose 50 mg/kg, read-out: average maximum plasma concentration (Cmax)) it was 160 µg/mL; in series [2] (rat, plasma, sc, male rats, subcutaneous, single dose 160 mg/kg, read-out: average maximum plasma concentration (Cmax)), 760 µg/mL; in series [2] (rat, plasma, sc, male rats, subcutaneous, single dose 500 mg/kg, read-out: average maximum plasma concentration (Cmax)) it was 3300 µg/mL; in series [2] (rat, plasma, female rats, oral, single dose 500 mg/kg, read-out: average Cmax), 3800 µg/mL. For the same molecule, the Cmax stood at 160 µg/mL in series [2] (rat, plasma, male rats, oral, single dose 50 mg/kg, read-out: average maximum plasma concentration (Cmax)) and 560 µg/mL in series [2] (rat, plasma, male rats, oral, single dose 160 mg/kg, read-out: average maximum plasma concentration (Cmax)). Also, the half-life in series [2] (rat, plasma, rats, both routes (oral, subcutaneous) and both sexes, read-out: Half-lives) is 8 to 15 h. In addition, in series [2] (rats, after both the oral and subcutaneous routes), the bioavailability result is listed as “significant bioavailability”. The “doses at which effects were seen, relative to expected human therapeutic doses” value with rats and in the series with dogs was “over 2000 fold” in each case. The “effects seen after oral, systemic toxicity administration” value with rats (setting [3]) and in the series with dogs (setting [3]) was “mild physiological effects” throughout.
